Data from PubChem BioAssay (NCI).
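Briefly, cells in 96-well plates were exposed to five compound concentrations for 48 h, and endpoints were estimated by linear interpolation. Definition used: TGI = concentration required for complete inhibition of growth.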

Tests used:
Experiment in all cases: NCI tumour cell line growth inhibition, 48 h
HT29 colon = system: HT29 colon
NCI-H460 lung = system: NCI-H460 lung
OVCAR-4 ovarian = system: OVCAR-4 ovarian
SF-539 CNS = system: SF-539 CNS
IGROV1 ovarian = system: IGROV1 ovarian
SW-620 colon = system: SW-620 colon
HOP-92 NSCLC = system: HOP-92 NSCLC
NCI/ADR-RES ovarian = system: NCI/ADR-RES ovarian
NCI-H522 lung = system: NCI-H522 lung
A498 renal = system: A498 renal
UO-31 renal = system: UO-31 renal
HOP-62 NSCLC = system: HOP-62 NSCLC
UACC-257 melanoma = system: UACC-257 melanoma
SK-MEL-28 melanoma = system: SK-MEL-28 melanoma
HCT-116 colon = system: HCT-116 colon
MDA-MB-435 = system: MDA-MB-435
MDA-N = system: MDA-N
RXF 393 renal = system: RXF 393 renal
CAKI-1 renal = system: CAKI-1 renal
HCT-15 colon = system: HCT-15 colon

SMILES | TGI (HT29 colon) [µM] | TGI (NCI-H460 lung) [µM] | TGI (OVCAR-4 ovarian) [µM] | TGI (SF-539 CNS) [µM] | TGI (IGROV1 ovarian) [µM] | TGI (SW-620 colon) [µM] | TGI (HOP-92 NSCLC) [µM] | TGI (NCI/ADR-RES ovarian) [µM] | TGI (NCI-H522 lung) [µM] | TGI (A498 renal) [µM] | TGI (UO-31 renal) [µM] | TGI (HOP-62 NSCLC) [µM] | TGI (UACC-257 melanoma) [µM] | TGI (SK-MEL-28 melanoma) [µM] | TGI (HCT-116 colon) [µM] | TGI (MDA-MB-435) [µM] | TGI (MDA-N) [µM] | TGI (RXF 393 renal) [µM] | TGI (CAKI-1 renal) [µM] | TGI (HCT-15 colon) [µM]
CC(=O)C1C(=O)C(C(C)=O)C2C3C=CC(C3)C12 (stereo not drawn) | > 100 | > 100 | > 100 | > 100 | > 100 | > 100 | > 100 | > 100 | > 100 | > 100 | > 100 | > 100 | > 100 | > 100 | > 100 | > 100 | > 100 | > 100 | > 100 | > 100
O=C(c1ccccc1)N(CCCCNC(=O)C(F)(F)F)CCCNC(=O)C(F)(F)F | > 100 | > 100 | > 100 | > 100 | > 100 | > 100 | > 100 | > 100 | > 100 | > 100 | > 100 |  | > 100 | > 100 | > 100 | > 100 | > 100 | > 100 | > 100 | > 100
c1cc(C2=NCCO2)c2ccsc2c1 | > 100 | > 100 | > 100 | > 100 | > 100 | > 100 | > 100 | > 100 | > 100 | > 100 | > 100 | > 100 | > 100 | > 100 | > 100 | > 100 | > 100 | > 100 | > 100 | > 100
COn1oc(=O)c2ccccc21 | > 100 | > 100 | > 100 | > 100 | > 100 | > 100 | > 100 | > 100 | > 100 | > 100 | > 100 | > 100 | > 100 | > 100 | > 100 | > 100 | > 100 | > 100 | > 100 | > 100
Cn1c2ccccc2c2c3c(c4c5ccccc5n(C5OC(CO)C(O)C(O)C5O)c4c21)C(=O)OC3=O (stereo not drawn) | > 100 | > 100 | > 100 | > 100 | > 100 | > 100 | > 100 | > 100 | > 100 | > 100 | > 100 | > 100 | > 100 | > 100 | > 100 | > 100 | > 100 | > 100 | > 100 | > 100
O=C(Nc1ccccc1)c1cc(S(=O)(=O)N2CCNC2=O)c(S)cc1Cl | > 100 | > 100 | > 100 | > 100 | > 100 | > 100 | > 100 | > 100 | > 100 | > 100 | > 100 | > 100 | > 100 | > 100 | > 100 | > 100 | > 100 | > 100 | > 100 | > 100
O=C(O)c1ccccc1/C=C1/Cc2ccc3c(c2C1=O)CCC3 | > 100 | > 100 | > 100 | 43.6 | > 100 | > 100 | 80.8 | > 100 | > 100 | > 100 | > 100 | > 100 | > 100 | > 100 | > 100 | 74.9 | > 100 | > 100 | > 100 | > 100
O=C1/C(=C/c2ccccc2)CCc2ccc([N+](=O)[O-])cc21 | > 100 | > 100 | > 100 | > 100 | > 100 | > 100 | > 100 | > 100 |  | > 100 | > 100 | > 100 | > 100 | > 100 | > 100 | > 100 | > 100 | 77.7 | > 100 | > 100
C/C=C\C(CC(=O)NCCC1CN(C(=O)OCc2ccccc2)c2ccccc21)CC(=O)OC (stereo not drawn) | > 100 | > 100 | > 100 |  | > 100 | > 100 | > 100 | > 100 | > 100 | > 100 | > 100 | > 100 | > 100 | > 100 | > 100 | > 100 | > 100 | > 100 | > 100 | > 100
O=C1CCC2(CC1CCS(=O)c1ccccc1)OCCO2 (stereo not drawn) | > 100 | > 100 | > 100 | > 100 | > 100 | > 100 | > 100 | > 100 | > 100 | > 100 | > 100 | > 100 | > 100 | > 100 |  | > 100 | > 100 | > 100 | > 100 | > 100
CC(C)(C)OC(=O)NCCC1CNc2ccccc21 (stereo not drawn) | > 100 | > 100 | > 100 |  | > 100 | > 100 | > 100 | > 100 | > 100 | > 100 | > 100 | > 100 | > 100 | > 100 | > 100 | > 100 | > 100 | > 100 | > 100 | > 100
Cc1cc(C#N)c(Nc2ccc(F)cc2[N+](=O)[O-])s1 |  | > 100 | > 100 | > 100 |  | > 100 | 94.6 | > 100 | > 100 | > 100 | > 100 | > 100 | > 100 | > 100 | > 100 | > 100 | > 100 | > 100 | > 100 | > 100
